Measurements as given in patent US10815274B2, “Immunogenic WT-1 peptides and methods of use thereof” (Memorial Sloan Kettering Cancer Center, priority 2012, dated 2020).
Where a SMILES comes first, the peptide text is derived from it.

How the values were obtained:
Conditions in all cases: 50:1 E:T
WT1- autologous APC = assay: Cr51 release assay, cytotoxic CTL response vs unmodified autologous APC; type: cell-based, human
[1] = test system: WT1 peptide loaded autologous APC; assay: Cr51 release assay, cytotoxic CTL response vs peptide loaded autologous APC; type: cell-based, human
[2] = test system: WT1- allo APC with restricting HLA allele; assay: Cr51 release assay, cytotoxic CTL response vs unloaded allogeneic APC sharing restricting HLA allele; type: cell-based, human
[3] = test system: WT1+ allo APC with restricting HLA allele loaded with WT1 peptide; assay: Cr51 release assay, cytotoxic CTL response vs peptide loaded allogeneic APC sharing restricting HLA allele (HLA restriction)

## CC(C)C[C@H](NC(=O)[C@@H](NC(=O)[C@H](C)NC(=O)CNC(=O)[C@@H](N)CC(C)C)[C@@H](C)O)C(=O)N[C@@H](CCCCN)C(=O)NCC(=O)N[C@H](C(=O)N[C@@H](C)C(=O)N[C@@H](C)C(=O)O)C(C)C [SEQ ID NO: 176] (H-LGATLKGVAA-OH; N-terminus and C-terminus assumed)
WT1- autologous APC; HLA allele A0203
  Cytotoxic CTL response, % vs WT1- autologous APC: 0%
[1]; HLA allele A0203
  Cytotoxic CTL response, % vs WT1 peptide loaded autologous APC: 35%
[2]; HLA allele A0203
  Cytotoxic CTL response, % vs WT1- allo APC with restricting HLA allele: 0%
[3]; HLA allele A0203
  Cytotoxic CTL response, % vs WT1+ allo APC with restricting HLA allele loaded with WT1 peptide: 21%

## CSCC[C@H](NC(=O)[C@H](CCCNC(=N)N)NC(=O)[C@H](C)NC(=O)[C@H](CCC(N)=O)NC(=O)CNC(=O)[C@@H](N)CO)C(=O)N[C@@H](Cc1ccccc1)C(=O)N1CCC[C@H]1C(=O)N[C@@H](CC(N)=O)C(=O)O [SEQ ID NO: 160] (H-SGQARMFPN-OH; N-terminus and C-terminus assumed)
WT1- autologous APC; HLA allele B3503
  Cytotoxic CTL response, % vs WT1- autologous APC: 0%
WT1- autologous APC; HLA allele C0401
  Cytotoxic CTL response, % vs WT1- autologous APC: 0%
[1]; HLA allele B3503
  Cytotoxic CTL response, % vs WT1 peptide loaded autologous APC: 84%
[1]; HLA allele C0401
  Cytotoxic CTL response, % vs WT1 peptide loaded autologous APC: 84%
[2]; HLA allele B3503
  Cytotoxic CTL response, % vs WT1- allo APC with restricting HLA allele: 3%
[2]; HLA allele C0401
  Cytotoxic CTL response, % vs WT1- allo APC with restricting HLA allele: 3%
[3]; HLA allele B3503
  Cytotoxic CTL response, % vs WT1+ allo APC with restricting HLA allele loaded with WT1 peptide: 41%
[3]; HLA allele C0401
  Cytotoxic CTL response, % vs WT1+ allo APC with restricting HLA allele loaded with WT1 peptide: 41%

## CC(C)[C@H](NC(=O)[C@@H](NC(=O)[C@H](CO)NC(=O)[C@H](Cc1ccc(O)cc1)NC(=O)CNC(=O)[C@H](CCC(N)=O)NC(=O)[C@@H](N)CC(N)=O)[C@@H](C)O)C(=O)N[C@H](C(=O)N[C@@H](Cc1ccccc1)C(=O)O)[C@@H](C)O [SEQ ID NO: 163] (H-NQGYSTVTF-OH; N-terminus and C-terminus assumed)
WT1- autologous APC; HLA allele A0101
  Cytotoxic CTL response, % vs WT1- autologous APC: 2%
[1]; HLA allele A0101
  Cytotoxic CTL response, % vs WT1 peptide loaded autologous APC: 19%
[2]; HLA allele A0101
  Cytotoxic CTL response, % vs WT1- allo APC with restricting HLA allele: 4%
[3]; HLA allele A0101
  Cytotoxic CTL response, % vs WT1+ allo APC with restricting HLA allele loaded with WT1 peptide: 15%

## C[C@H](N)C(=O)N[C@@H](CS)C(=O)N[C@@H](CCCNC(=N)N)C(=O)N[C@@H](Cc1ccc(O)cc1)C(=O)NCC(=O)N1CCC[C@H]1C(=O)N[C@@H](Cc1ccccc1)C(=O)NCC(=O)N1CCC[C@H]1C(=O)O [SEQ ID NO: 159] (H-ACRYGPFGP-OH; N-terminus and C-terminus assumed)
WT1- autologous APC; HLA allele B4402
  Cytotoxic CTL response, % vs WT1- autologous APC: 8%
[1]; HLA allele B4402
  Cytotoxic CTL response, % vs WT1 peptide loaded autologous APC: 46%
[2]; HLA allele B4402
  Cytotoxic CTL response, % vs WT1- allo APC with restricting HLA allele: 7%
[3]; HLA allele B4402
  Cytotoxic CTL response, % vs WT1+ allo APC with restricting HLA allele loaded with WT1 peptide: 23%

## C[C@@H](O)[C@H](NC(=O)[C@H](CS)NC(=O)[C@H](CO)NC(=O)[C@H](CC(=O)O)NC(=O)[C@@H](NC(=O)[C@@H]1CCCN1C(=O)[C@@H](NC(=O)[C@H](Cc1c[nH]cn1)NC(=O)[C@@H](N)CS)[C@@H](C)O)[C@@H](C)O)C(=O)O [SEQ ID NO: 166] (H-CHTPTDSCT-OH)
WT1- autologous APC; HLA allele B4402
  Cytotoxic CTL response, % vs WT1- autologous APC: 8%
[1]; HLA allele B4402
  Cytotoxic CTL response, % vs WT1 peptide loaded autologous APC: 37%
[2]; HLA allele B4402
  Cytotoxic CTL response, % vs WT1- allo APC with restricting HLA allele: 7%
[3]; HLA allele B4402
  Cytotoxic CTL response, % vs WT1+ allo APC with restricting HLA allele loaded with WT1 peptide: 19%

## CC(C)C[C@H](NC(=O)[C@H](CS)NC(=O)[C@H](CO)NC(=O)[C@@H]1CCCN1)C(=O)N[C@@H](CCC(=O)O)C(=O)N[C@@H](CO)C(=O)N[C@@H](CCC(N)=O)C(=O)N1CCC[C@H]1C(=O)N[C@@H](C)C(=O)O [SEQ ID NO: 162] (H-PSCLESQPA-OH; N-terminus and C-terminus assumed)
WT1- autologous APC; HLA allele B3501
  Cytotoxic CTL response, % vs WT1- autologous APC: 0%
[1]; HLA allele B3501
  Cytotoxic CTL response, % vs WT1 peptide loaded autologous APC: 35%
[2]; HLA allele B3501
  Cytotoxic CTL response, % vs WT1- allo APC with restricting HLA allele: 0%
[3]; HLA allele B3501
  Cytotoxic CTL response, % vs WT1+ allo APC with restricting HLA allele loaded with WT1 peptide: 21%

## CC(C)C[C@H](NC(=O)[C@@H](N)[C@@H](C)O)C(=O)NCC(=O)N[C@H](C(=O)N[C@@H](C)C(=O)N[C@@H](C)C(=O)NCC(=O)N[C@@H](CO)C(=O)O)C(C)C [SEQ ID NO: 177] (H-TLGVAAGS-OH; N-terminus and C-terminus assumed)
WT1- autologous APC; HLA allele A6901
  Cytotoxic CTL response, % vs WT1- autologous APC: 4%
[1]; HLA allele A6901
  Cytotoxic CTL response, % vs WT1 peptide loaded autologous APC: 80%
[2]; HLA allele A6901
  Cytotoxic CTL response, % vs WT1- allo APC with restricting HLA allele: 0%
[3]; HLA allele A6901
  Cytotoxic CTL response, % vs WT1+ allo APC with restricting HLA allele loaded with WT1 peptide: 57%
